Results as given in patent US6495604B1, “Cycloalkene derivatives, process for producing the same, and use” (Takeda Chemical Industries, Ltd., priority 1998, dated 2002).

System: NO production by RAW264.7 cell
Assay: NO production-inhibiting effect in RAW264.7 cells (nitrite ion by DAN fluorescence)
Type: cell-based, mouse
Settings: LPS 5 ng/ml + interferon gamma 1 U/ml, nitrite ion in culture supernatant after overnight incubation
Description: Mouse macrophage cell line RAW264.7 was used as an iNOS-inducible cell and a test compound was examined for its % inhibition of NO production. The test compound was dissolved at 10 mM in N,N-dimethylformamide and diluted with an RPMI-1640 medium at the concentration of 0.1 mM. The concentration was further adjusted using the medium so that a final concentration ranging from 10 μM to 10 nM could be obtained by a 10-fold serial dilution and the test compound was added to a culture medium. On the day before the experiment, the cell was adjusted at 5×10^5/ml in an RPMI-1640 medium supplemented with 10% inactivated fetal calf serum and inoculated to a 96-well microplate at 1×10^5 cells/0.2 ml per well. After incubating at 37° C. under an atmosphere of 5% CO2/95% air overnight, the test compound adjusted as described above was added and then LPS and interferon gamma were added at the final concentrations of 5 ng/ml and 1 U/ml, respectively. After further incubating overnight, culture supernatants were examined for the concentration of nitrite ion (stable metabolite of NO) which was used as an index for the NO production. The nitrite ion concentration was determined by adding 25 μl of 20 μg/ml of 2,3-diaminonaphthalene (DAN) to 50 μl of the culture supernatant, followed by incubating at room temperature for 10 minutes, followed by adding 25 μl of 0.5 N NaOH, followed by determining a fluorescence at 450 nm (excitation wavelength: 365 nm). An IC50 represents the concentration of the test compound which inhibits 50% of the NO production.

[1] = Mus musculus, RAW264.7, RAW264.7

| IC50 [1] | Compound | other results |
| --- | --- | --- |
| 1.1 µM | CCOC(=O)C1=CCCCC1S(=O)(=O)N(C)c1ccc(Cl)cc1F (stereo not drawn) [Compound 2, ethyl 6-[N-(4-chloro-2-fluorophenyl)-N-methylsulfamoyl]-1-cyclohexene-1-carboxylate] |  |
| 2.6 µM | CCOC(=O)C1=CCCCC1S(=O)(=O)Nc1c(C(C)C)cccc1C(C)C (stereo not drawn) [Compound 4, ethyl 6-[N-(2,6-diisopropylphenyl)sulfamoyl]-1-cyclohexene-1-carboxylate] |  |
|  | CCOC(=O)C1=CCCCC1S(=O)(=O)Nc1ccc([N+](=O)[O-])cc1 (stereo not drawn) [Compound 5, ethyl 6-[N-(4-nitrophenyl)sulfamoyl]-1-cyclohexene-1-carboxylate] | IC50 (Mus musculus, RAW264.7): 3.7 µM |
| 0.59 µM | CCOC(=O)C1=CCCCC1S(=O)(=O)Nc1ccccc1 (stereo not drawn) [Compound 6, ethyl 6-(N-phenylsulfamoyl)-1-cyclohexene-1-carboxylate] |  |
| 4 µM | CCOC(=O)C1=C(S(=O)(=O)Nc2ccccc2)CCCC1 [Compound 7, ethyl 2-(N-phenylsulfamoyl)-1-cyclohexene-1-carboxylate] |  |
| 4.8 µM | CCOC(=O)C1=C(S(=O)(=O)Nc2ccc(OC)cc2)CCCC1 [Compound 8, ethyl 2-[N-(4-methoxyphenyl)sulfamoyl]-1-cyclohexene-1-carboxylate] |  |
| 4.1 µM | CCOC(=O)C1=C(S(=O)(=O)Nc2ccc(Cl)cc2F)CCCC1 [Compound 9, ethyl 2-[N-(4-chloro-2-fluorophenyl)sulfamoyl]-1-cyclohexene-1-carboxylate] |  |
| 0.058 µM | CCOC(=O)C1=CCCCC1S(=O)(=O)Nc1ccccc1F (stereo not drawn) [Compound 10, ethyl 6-[N-(2-fluorophenyl)sulfamoyl]-1-cyclohexene-1-carboxylate] |  |
| 0.18 µM | CCOC(=O)C1=CCCCC1S(=O)(=O)Nc1ccc(F)cc1 (stereo not drawn) [Compound 12, ethyl 6-[N-(4-fluorophenyl)sulfamoyl)-1-cyclohexene-1-carboxylate] |  |
| 0.46 µM | CCOC(=O)C1=CCCCC1S(=O)(=O)Nc1c(F)cccc1F (stereo not drawn) [Compound 13, ethyl 6-[N-(2,6-difluorophenyl)sulfamoyl]-1-cyclohexene-1-carboxylate] |  |
| 0.59 µM | CCOC(=O)C1=CCCCC1S(=O)(=O)Nc1cccc(F)c1F (stereo not drawn) [Compound 14, ethyl 6-[N-(2,3-difluorophenyl)sulfamoyl]-1-cyclohexene-1-carboxylate] |  |
| 0.28 µM | CCOC(=O)C1=CCCCC1S(=O)(=O)Nc1cc(F)ccc1F (stereo not drawn) [Compound 15, ethyl 6-[N-(2,5-difluorophenyl)sulfamoyl]-1-cyclohexene-1-carboxylate] |  |
| 0.18 µM | CCOC(=O)C1=CCCCC1S(=O)(=O)Nc1ccc(F)c(F)c1 (stereo not drawn) [Compound 16, ethyl 6-[N-(3,4-difluorophenyl)sulfamoyl]-1-cyclohexene-1-carboxylate] |  |
| 2.6 µM | CCOC(=O)C1=CCCCC1S(=O)(=O)Nc1cc(F)cc(F)c1 (stereo not drawn) [Compound 17, ethyl 6-[N-(3,5-difluorophenyl)sulfamoyl]-1-cyclohexene-1-carboxylate] |  |
| 4.4 µM | CCOC(=O)C1=C(S(=O)(=O)Nc2ccc(F)cc2)CCCC1 [Compound 18, ethyl 2-[N-(4-fluorophenyl)sulfamoyl)-1-cyclohexene-1-carboxylate] |  |
|  | CCOC(=O)C1=CCCCC1S(=O)(=O)Nc1ccc(F)cc1F (stereo not drawn) [Compound 19, 1-ethyl 6-[N-(2,4-difluorophenyl)sulfamoyl]-1-cyclohexene-1-carboxylate] | IC50 (RAW264.7): 2 µM |
| 2.4 µM | CCOC(=O)C1=CCCCC1S(=O)(=O)Nc1ccccc1C(=O)OCC (stereo not drawn) [Compound 21, ethyl 6-[N-(2-ethoxycarbonylphenyl)sulfamoyl]-1-cyclohexene-1-carboxylate] |  |
| 0.18 µM | COC(=O)C1=CCCCC1S(=O)(=O)Nc1ccc(F)cc1F (stereo not drawn) [Compound 22, methyl 6-[N-(2,4-difluorophenyl)sulfamoyl]-1-cyclohexene-1-carboxylate] |  |
| 0.027 µM | CCCOC(=O)C1=CCCCC1S(=O)(=O)Nc1ccc(F)cc1F (stereo not drawn) [Compound 23, propyl 6-[N-(2,4-difluorophenyl)sulfamoyl]-1-cyclohexene-1-carboxylate] |  |
| 0.78 µM | COC(=O)C1=CCCCC1S(=O)(=O)Nc1ccc(Cl)cc1F (stereo not drawn) [Compound 24, methyl 6-[N-(4-chloro-2-fluorophenyl)sulfamoyl]-1-cyclohexene-1-carboxylate] |  |
| 0.32 µM | CC(C)OC(=O)C1=CCCCC1S(=O)(=O)Nc1ccc(F)cc1F (stereo not drawn) [Compound 25, isopropyl 6-[N-(2,4-difluorophenyl)sulfamoyl]-1-cyclohexene-1-carboxylate] |  |

| IC50 [1] | Compound | other results |
| --- | --- | --- |
| 3.3 µM | CCOC(=O)C1=CCCCC1S(=O)(=O)Nc1ccccc1C(=O)OC (stereo not drawn) [Compound 26, ethyl 6-[N-(2-methoxycarbonylphenyl)sulfamoyl]-1-cyclohexene-1-carboxylate] |  |
| 0.25 µM | CCOC(=O)C1=CCCCC1S(=O)(=O)Nc1ccc(C)cc1F (stereo not drawn) [Compound 27, ethyl 6-[N-(2-fluoro-4-methylphenyl)sulfamoyl]-1-cyclohexene-1-carboxylate] |  |
| 0.029 µM | CCOC(=O)C1=CCCCC1S(=O)(=O)Nc1ccccc1Cl (stereo not drawn) [Compound 28, ethyl 6-[N-(2-chlorophenyl)sulfamoyl]-1-cyclohexene-1-carboxylate] |  |
| 0.0093 µM | CCOC(=O)C1=CCCCC1S(=O)(=O)Nc1ccc(F)cc1Cl (stereo not drawn) [Compound 29, ethyl 6-[N-(2-chloro-4-fluorophenyl)sulfamoyl]-1-cyclohexene-1-carboxylate] |  |
|  | CCOC(=O)C1=CCCCC1S(=O)(=O)Nc1ccc(Cl)cc1 (stereo not drawn) [Compound 30, ethyl 6-[N-(4-chlorophenyl)sulfamoyl]-1-cyclohexene-1-carboxylate] | IC50 (Mus musculus, RAW264.7): 0.54 µM |
| 0.23 µM | CCOC(=O)C1=CCCCC1S(=O)(=O)Nc1ccc(F)c(F)c1F (stereo not drawn) [Compound 31, ethyl 6-[N-(2,3,4-trifluorophenyl)sulfamoyl]-1-cyclohexene-1-carboxylate] |  |
| 0.23 µM | CC(C)COC(=O)C1=CCCCC1S(=O)(=O)Nc1ccc(F)cc1F (stereo not drawn) [Compound 32, isobutyl 6-[N-(2,4-difluorophenyl)sulfamoyl]-1-cyclohexene-1-carboxylate] |  |
| 0.26 µM | CCCCOC(=O)C1=CCCCC1S(=O)(=O)Nc1ccc(F)cc1F (stereo not drawn) [Compound 33, butyl 6-[N-(2,4-difluorophenyl)sulfamoyl]-1-cyclohexene-1-carboxylate] |  |
| 0.35 µM | CCOC(=O)C1=CCCCC1S(=O)(=O)Nc1ccc(Br)cc1F (stereo not drawn) [Compound 34, ethyl 6-[N-(4-bromo-2-fluorophenyl)sulfamoyl]-1-cyclohexene-1-carboxylate] |  |
| 0.082 µM | CCOC(=O)C1=CCCCC1S(=O)(=O)Nc1ccc(Cl)cc1Cl (stereo not drawn) [Compound 35, ethyl 6-[N-(2,4-dichlorophenyl)sulfamoyl]-1-cyclohexene-1-carboxylate] |  |
|  | CCOC(=O)C1=CCCCC1S(=O)(=O)Nc1cccc(Cl)c1 (stereo not drawn) [Compound 37, ethyl 6-[N-(3-chlorophenyl)sulfamoyl]-1-cyclohexene-1carboxylate] | IC50 (Mus musculus, RAW264.7): 0.13 µM |
| 0.041 µM | CCOC(=O)C1=CCCCC1S(=O)(=O)Nc1cccc(Cl)c1Cl (stereo not drawn) [Compound 38, ethyl 6-[N-(2,3-dichlorophenyl)sulfamoyl]-1-cyclohexene-1-carboxylate] |  |
|  | CCOC(=O)C1=CCCCC1S(=O)(=O)Nc1ccccc1CC (stereo not drawn) [Compound 39, ethyl 6-[N-(2-ethylphenyl)sulfamoyl]-1-cyclohexene-1-carboxylate] | IC50 (Mus musculus, RAW264.7): 0.32 µM |
| 2.5 µM | CCOC(=O)C1=CCCCC1S(=O)(=O)Nc1ccc(-n2nccn2)cc1 (stereo not drawn) [Compound 40, ethyl 6-[N-[4-(2H-1,2,3-triazol-2-yl)phenyl)sulfamoyl]-1-cyclohexene-1-carboxylate] |  |
| 0.24 µM | CCOC(=O)C1=CCCCC1S(=O)(=O)Nc1cc(Cl)ccc1Cl (stereo not drawn) [Compound 41, ethyl 6-[N-(2,5-dichlorophenyl)sulfamoyl]-1-cyclohexene-1-carboxylate] |  |
| 1.1 µM | CCOC(=O)C1=CCCCC1S(=O)(=O)Nc1ccccc1OC(F)(F)F (stereo not drawn) [Compound 42, ethyl 6-[N-(2-trifluoromethoxyphenyl)sulfamoyl]-1-cyclohexene-1-carboxylate] |  |
| 0.073 µM | CCOC(=O)C1=CCCCC1S(=O)(=O)Nc1cc(F)c(F)cc1F (stereo not drawn) [Compound 43, ethyl 6-[N-(2,4,5-trifluorophenyl)sulfamoyl]-1-cyclohexene-1-carboxylate] |  |
| 3.7 µM | CCOC(=O)C1=CCCCC1S(=O)(=O)Nc1ccc(-n2ncnn2)cc1 (stereo not drawn) [Compound 44, ethyl 6-[N-[4-(2H-tetrazol-2-yl)phenyl)sulfamoyl]-1-cyclohexene-1-carboxylate] |  |
| 0.027 µM | CCOC(=O)C1=CCCCC1S(=O)(=O)Nc1ccc(C)cc1Cl (stereo not drawn) [Compound 45, ethyl 6-[N-(2-chloro-4-methylphenyl)sulfamoyl]-1-cyclohexene-1-carboxylate] |  |
| 0.054 µM | CCOC(=O)C1=CCCCC1S(=O)(=O)Nc1ccc(F)cc1C (stereo not drawn) [Compound 46, ethyl 6-[N-(4-fluoro-2-methylphenyl)sulfamoyl]-1-cyclohexene-1-carboxylate] |  |
| 0.048 µM | CCOC(=O)C1=CCCCC1S(=O)(=O)Nc1c(Cl)cccc1Cl (stereo not drawn) [Compound 47, ethyl 6-[N-(2,6-dichlorophenyl)sulfamoyl]-1-cyclohexene-1-carboxylate] |  |
